In US9737525B2, “Small molecule activators of NRF2 pathway” (The General Hospital Corporation, priority 2013, dated 2017):
Entries after “also recorded” stand apart in the source; their conditions may differ.

Assays:
[1] = tested on: NRF2-responsive proteins NQO1 and GCLM; assay: Induction of NQO1 and GCLM proteins in differentiated ST14A cells (immunoblotting); format: cell-based, rat; settings: differentiated HD mutant and wild type ST14A cells, 24 hours
Protocol: To assess protein levels, cell extracts were prepared from cells washed with PBS and lysed with buffer containing 2% SDS, Complete EDTA-free Protease Inhibitor Cocktail (Roche) and 1 mM phenylmethylsulfonyl fluoride. To prepare brain extracts for analysis, frozen mouse cortical tissues were homogenized in PBS containing protease inhibitors with an Kontes Pellet Pestle (Kimble/Kontes). They were later sonicated and lysed overnight at 4° C. in 2× volume of lysis buffer containing 2% SDS and protease inhibitors. Protein concentrations in ST14A cell extracts and homogenized cortical tissues were evaluated using a BCA analysis kit and normalized. Samples were prepared in a SDS buffer containing DTT and separated on bis-acrylamide protein gels via electrophoresis and transferred onto a 0.2 μm PVDF membrane). Membranes were probed for NQO1 (Sigma N5288, 1:1,000), GCLM, (Abcam ab126704, 1:800), SIRT2 (Sigma S8447, 1:2,500), histone H3 (Cell Signaling 4499, 1:2,000), acetylated H3 (K56) (Millipore 04-1135, 1:500), TNFα (Abcam ab1793, 1:1,500), GADPH (Millipore MAB374, 1:10,000), actin (Sigma A2066, 1:1250), α-tubulin (Sigma T6074, 1:20,000), and acetylated α-tubulin (Sigma T6793, 1:2,500) overnight in 5% milk in PBST at 4° C. on a rocker. Membranes were thrice washed in PBST for 15 min on a shaker and incubated in either an anti-rabbit-HRP (Bio-Rad 170-5046, 1:10,000) or anti-mouse-HRP (Sigma A3682, 1:4,000) secondary solution as appropriate in 3% milk in PBST for 1 hr at room temperature on a rocker. After four washes of 15 min in PBST on a shaker, blots were visualized using SuperSignal West Pico Chemiluminescent Substrate (Pierce 34080) or SuperSignal West Dura Extended Duration Substrate (Thermo 34075) and exposed on Scientific Imaging Film (Kodak 864 6770).
Compound bioactivity was tested in the rat embryonic striatal cell lines ST14A, which stably express either a mutant expanded repeat (128Q) or wild type (26Q) 546 amino acid huntingtin (HTT) fragment (a generous gift of E. Cattaneo) (Ehrlich et al., 2001) ST14A cells were propagated at 33° C. in the presence of serum. To induce neuronal differentiation, cells were serum deprived and cultured at 37° C. in the presence of N2 supplement. Cells were treated with compounds concurrently with induction of neuronal differentiation for 24 hours, as described (Quinti et al., 2010).
The NRF2 activation properties of further MIND4 structural analogs with variable potencies of SIRT2 inhibition were tested as described previously (see Table 1) Changes in expression of the canonical NRF2-responsive proteins NQO1 and GCLM, the transcription of which was induced by MIND4, was selected as a readout of pathway activation. Protein levels of NQO1 and GCLM were examined by immunoblotting in compound treated mutant HD and wild-type ST14A cells. […] This hypothesis was tested using a second panel of MIND4 analogs (see Table 3).

NRF2/KEAP1 in MEFs = assay: NQO1 and NRF2 levels in mouse embryonic fibroblasts (MEFs), western blot; format: cell-based; settings: wild-type MEFs; for Accumulation of total NRF2 protein: 5 hr exposure
Protocol: Mouse embryonic fibroblasts (MEFs) from wild-type (WT), NRF2-knockout (NRF2-KO) or KEAP1-knockout (KEAP1-KO) mice, were cultured in plastic dishes (Invitrogen) coated for 30 min with 0.1% (w/v) gelatin before use. The cell culture medium was Iscoves Modified Dulbecco's Medium (with L-glutamine) supplemented with human recombinant epidermal growth factor (10 ng/mL), 1× insulin/transferrin/selenium, and 10% (v/v) heat-inactivated FBS, all from Invitrogen. Cells were maintained at 5% CO2 in air at 37° C. For experiments, cells (250,000 per well) were grown for 24 hr on 6-well plates, and then treated with solvent control (0.1% DMSO, v/v) or compounds for either 5 hr or 24 hr. For western blot analysis, cells were washed twice with ice-cold phosphate buffered saline (PBS) and lysed in 150 μl of RIPA buffer (50 mM Tris-Cl pH 7.5, 150 mM NaCl, 0.5% sodium deoxycholate, 1% NP-40, 0.1% SDS and 1 mM EDTA), containing 1 protease inhibitor cocktail tablet (Roche) per 10 ml of buffer. Cell debris were removed by centrifugation at 16,300×g for […] at 4° C., and protein concentrations were determined by the BCA assay (Thermo). Proteins were resolved by SDS/PAGE, transferred to immobilon-P membranes, and probed with specific antibodies against NQO1 (1:1000) or NRF2 (1:1000). Equal loading was confirmed by probing the blots with an antibody against β-actin (mouse monoclonal, 1:10000), from Sigma, Dorset, United Kingdom.
For nuclear-cytoplasmic separation, WT MEFs (500,000 per dish) were grown for 24 hr on 6-cm plates, and then treated with solvent control (0.1% DMSO, v/v) or 0.5 μM MIND4-17. At the end of each treatment time, cells were placed on ice and washed twice with ice-cold PBS and subsequently lysed in buffer A [10 mM KCl, 5 mM MgCl2, 50 mM Tris-HCl (pH 7.5), 0.5% Nonidet P-40 (Roche), 1 mM dithioretitol (DTT) (Sigma), containing one protease inhibitor tablet and one phosphatase inhibitor tablet (both from Roche) per each 10 ml of buffer]. The lysates were subjected to centrifugation (Spectrafuge 24D, Labnet) at 1,000×g for 5 min at 4° C. The supernatant (cytoplasmic fraction) was transferred to a fresh Eppendorf tube. The pellet (nuclear fraction) was washed three times in buffer A before being dissolved in buffer B [2% SDS, 150 mM NaCl, 65 mM Tris-HCl (pH 8.0)] and sonicated for 30 sec. Finally, the lysates were subjected to western blot analysis. The blots were probed with antibodies against GAPDH (rabbit polyclonal, 1:5000) and Lamin A/C (rabbit polyclonal, 1:1000, Gene Tex, Calif., United States of America) to confirm fraction purity and equal protein loading.

N9 microglial cells = assay: ROS/RNI assays in stimulated N9 microglial cells; format: cell-based; settings: LPS- and TNFα-activated microglial cells, 20 hr
Protocol: N9 microglial cells were cultured in RPMI medium containing Glutamax (Invitrogen) and supplemented with 10% FBS (Endotoxin levels lower than 10 EU/ml). Cells were plated in 96 well plates (5×10^4 per well) and cultured overnight before stimulation with LPS (100 ng/ml) and TNFα (10 ng/ml) for 20 hr in medium supplemented with DMSO or with the tested compounds. ROS were detected by flow cytometry after microglia incubation with […] of 5-(and-6)-chloromethyl-2′,7′-dichlorodihydrofluorescein diacetate, acetyl ester (CM-H2DCFDA) (Invitrogen) for 20 min. The production of NO by iNOS was measured indirectly by assaying nitrites in the culture supernatant using the Griess reaction [Liu, 2013]. Briefly, […] of supernatants were incubated with equal amount of Griess reagent (1% sulphanilamide, 0.1% naphthylethylenediamine in 2% phosphoric acid solution) and the absorbance read at 550 nm after 20 min of incubation at room temperature.

SMILES | Induction of NRF2-responsive proteins NQO1 and GCLM [1] | Accumulation of total NRF2 protein (NRF2/KEAP1 in MEFs) | Production of RNI (nitrites in supernatants) (N9 microglial cells) | ROS levels (N9 microglial cells) | NRF2 levels in nuclear and cytoplasmic fractions (NRF2/KEAP1 in MEFs; 0.5 μM, from 30 min, elevated for at least 5 hr)
O=[N+]([O-])c1ccc(Sc2nnc(COc3ccccc3)n2-c2ccccc2)c2ncccc12 [MIND4, 5-nitro-8-{[5-(phenoxymethyl)-4-phenyl-4H-1,2,4-triazol-3-yl]thio}quinoline] | induced dose-dependent increases of NQO1 and GCLM protein | to much lesser extent | reduced the production of RNI | reduced ROS levels | –
O=[N+]([O-])c1ccc(Sc2nnc(COc3ccccc3)n2-c2ccccc2)nc1 [MIND4-17] | potently induces NRF2-responses; also recorded: dose-dependent induction of NQO1 protein | readily detectable | reduced the production of RNI | reduced ROS levels | increase of NRF2 levels was detected
